{"source": "paper PMC12483148", "about": "(2025)", "assay_in_all_cases": "BLI, steady state fit", "key": {"[1]": {"test_system": "SAM-I riboswitch (3'-biotinylated) (RNA, riboswitch) GGCUUAUCAAGAGAGGUGGAGGGACUGGCCCGACGAAACCCGGCAACCAGAAAUGGUGCCAAUUCCUGCAGCGGAAACGUUGAAAGAUGAGCCG", "conditions": "150 mM Na+, 2 mM Mg2+, 10 mM HEPES pH 7.4, 0.005% Surfactant P20, RNA immobilised"}, "[2]": {"test_system": "TPP riboswitch (3'-biotinylated) (RNA, riboswitch) CAGUACUCGGGGUGCCCUUCUGCGUGAAGGCUGAGAAAUACCCGUAUCACCUGAUCUGGAUAAUGCCAGCGUAGGGAAGUGCUG", "conditions": "150 mM Na+, 2 mM Mg2+, 10 mM HEPES pH 7.4, 0.005% Surfactant P20, RNA immobilised"}, "[3]": {"test_system": "FMN riboswitch (3'-biotinylated) (RNA, riboswitch) GAUCUUCAGGGCGGGGUGAAAUUCCCCACCGGCGGUACAGCCCGCGAGCCCAGGAAACUGGGCAGACUUGGUGAAACUCCAAGGCCGACAGUAAAGUCUGGAUGAAAGAAGAUC", "conditions": "150 mM Na+, 2 mM Mg2+, RNA immobilised"}, "[4]": {"conditions": "10 mM HEPES pH 7.4, 0.005% Surfactant P20"}}, "data": [{"smiles": "Nc1ncnc2c1ncn2[C@@H]1O[C@H](CSCC[C@H](N)C(=O)O)[C@@H](O)[C@H]1O", "values": [{"measurement": "KD,stead", "setting": "[1]; highest concentration 500 μM", "value": 545, "unit": "µM"}]}, {"smiles": "Cc1ncc(C[n+]2csc(CCOP(=O)(O)OP(=O)(O)O)c2C)c(N)n1", "values": [{"measurement": "KD,stead", "setting": "[2]; single measurement, low signal-to-noise", "value": 0.016, "unit": "µM"}]}, {"smiles": "Cc1cc2nc3c(=O)[nH]c(=O)nc-3n(C[C@H](O)[C@H](O)[C@H](O)COP(=O)(O)O)c2cc1C", "values": [{"measurement": "KD,stead", "setting": "[3]; [4]", "value": 0.043, "unit": "µM"}]}, {"smiles": "Cc1ncc(C[n+]2csc(CCO)c2C)c(N)n1", "values": [{"measurement": "KD,stead", "setting": "[2]; b29 says 10 μM", "value": 7.0, "unit": "µM"}]}, {"smiles": "O=c1cc(-c2cccs2)nc(C2CCCNC2)[nH]1", "note": "(stereo not shown)", "values": [{"measurement": "KD,stead", "setting": "[3]; [4]", "value": 48, "unit": "µM"}]}, {"smiles": "O=C(NCc1ccc[nH]1)c1ccc2[nH]cnc2c1", "values": [{"measurement": "KD,stead", "setting": "[3]; HBS-P+ pH 7.4, 5% DMSO, apparent", "value": 14, "unit": "µM"}]}, {"smiles": "C[S+](CC[C@H](N)C(=O)O)C[C@H]1O[C@@H](n2cnc3c(N)ncnc32)[C@H](O)[C@@H]1O", "note": "(stereo partly shown)", "values": [{"measurement": "KD,stead", "setting": "[1]", "value": 0.17, "unit": "µM"}]}]}
